According to ChEMBL document CHEMBL1201862, “PubChem BioAssay data set” (2004):
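Exposure lasted 48 hours, with cells grown in 96-well plates and compounds tested at five concentrations. GI50 marks 50% less growth.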 Activity calls are given as the source filed them. No stated cut-off is given here; in the data, active = GI50 up to about 1.1 µM and inactive = higher.

Experiments:
Assay in all cases: DTP human tumour cell line panel, 48 h
SNB-78 = tested on: SNB-78
LOX IMVI = tested on: LOX IMVI
NCI-H23 = tested on: NCI-H23
Malme-3M = tested on: Malme-3M
NCI-H226 = tested on: NCI-H226
SK-MEL-28 = tested on: SK-MEL-28
SR = tested on: SR
EKVX = tested on: EKVX
ACHN = tested on: ACHN
HL-60 = tested on: HL-60
COLO 205 = tested on: COLO 205
HT-29 = tested on: HT-29
SNB-19 = tested on: SNB-19
UO-31 = tested on: UO-31
OVCAR-3 = tested on: OVCAR-3
OVCAR-4 = tested on: OVCAR-4
HCC 2998 = tested on: HCC 2998
DU-145 = tested on: DU-145
NCI/ADR-RES = tested on: NCI/ADR-RES
MDA-MB-435 = tested on: MDA-MB-435

Row | Structure (SMILES) | GI50 (SNB-78) | GI50 (LOX IMVI) | GI50 (NCI-H23) | GI50 (Malme-3M) | GI50 (NCI-H226) | GI50 (SK-MEL-28) | GI50 (SR) | GI50 (EKVX) | GI50 (ACHN) | GI50 (HL-60) | GI50 (COLO 205) | GI50 (HT-29) | GI50 (SNB-19) | GI50 (UO-31) | GI50 (OVCAR-3) | GI50 (OVCAR-4) | GI50 (HCC 2998) | GI50 (DU-145) | GI50 (NCI/ADR-RES) | GI50 (MDA-MB-435)
1 | COc1ccc(OC)c(/C=N/N=C(\N)NO)c1 | 82.6 µM (inactive) | 2.84 µM (inactive) | 27 µM (inactive) | 36.8 µM (inactive) | 16.6 µM (inactive) | 75.7 µM (inactive) | 45.2 µM (inactive) | 13.3 µM (inactive) | 12.3 µM (inactive) | 25.4 µM (inactive) | 10.6 µM (inactive) | 36.6 µM (inactive) | 88.7 µM (inactive) | 14.2 µM (inactive) | 23.8 µM (inactive) | 7.28 µM (inactive) | – | – | – | –
2 | C[S+]([O-])c1cc(=O)c2ccccc2s1 (stereo unspecified) | 7.52 µM (inactive) | 3.78 µM (inactive) | 6.19 µM (inactive) | 2.3 µM (inactive) | 16.9 µM (inactive) | 4.2 µM (inactive) | 1.56 µM (inactive) | 5.71 µM (inactive) | 1.91 µM (inactive) | 1.99 µM (inactive) | 2.32 µM (inactive) | 4.35 µM (inactive) | 18.4 µM (inactive) | 11.9 µM (inactive) | 2.42 µM (inactive) | 3.03 µM (inactive) | 7.64 µM (inactive) | 18.7 µM (inactive) | 16.7 µM (inactive) | 5.14 µM (inactive)
3 | CC(=O)OC12C(C)=C(C)C(=O)N1c1ccccc1N2C(C)=O (stereo unspecified) | > 100 µM (inactive) | > 100 µM (inactive) | > 100 µM (inactive) | – | > 100 µM (inactive) | 33.4 µM (inactive) | > 100 µM (inactive) | > 100 µM (inactive) | > 100 µM (inactive) | > 100 µM (inactive) | > 100 µM (inactive) | > 100 µM (inactive) | > 100 µM (inactive) | > 100 µM (inactive) | > 100 µM (inactive) | > 100 µM (inactive) | > 100 µM (inactive) | – | – | –
4 | O=C1c2cccc3cc([N+](=O)[O-])cc(c23)C(=O)N1CCNCCNCCNCCN1C(=O)c2cccc3cc([N+](=O)[O-])cc(c23)C1=O | 0.0553 µM (active) | – | 0.00193 µM (active) | 0.111 µM (active) | 0.124 µM (active) | 0.0311 µM (active) | 0.01 µM (active) | 0.112 µM (active) | 0.01 µM (active) | 0.01 µM (active) | 0.01 µM (active) | < 0.001 µM (active) | < 0.001 µM (active) | 0.033 µM (active) | 0.109 µM (active) | 0.0117 µM (active) | 0.01 µM (active) | – | – | –
5 | O=C(Nc1ccccc1[N+](=O)[O-])C(=O)C(C(=O)c1ccccc1-c1ccccc1)C1OC(=O)c2ccccc21 (stereo unspecified) | 20.1 µM (inactive) | 16.3 µM (inactive) | 17.9 µM (inactive) | 13 µM (inactive) | 6.1 µM (inactive) | 18.2 µM (inactive) | 8.43 µM (inactive) | 20.2 µM (inactive) | 30.8 µM (inactive) | 14.7 µM (inactive) | 16.1 µM (inactive) | 24 µM (inactive) | 13.6 µM (inactive) | 15.6 µM (inactive) | 14 µM (inactive) | 24.1 µM (inactive) | 14.8 µM (inactive) | – | – | –
6 | Oc1cc2c(cc1O)-c1[nH]ncc1CC2 | 80.4 µM (inactive) | 33.5 µM (inactive) | 35.4 µM (inactive) | 59.8 µM (inactive) | 18.6 µM (inactive) | 58.3 µM (inactive) | 27.8 µM (inactive) | 10.2 µM (inactive) | 21.6 µM (inactive) | 24.3 µM (inactive) | 26.1 µM (inactive) | 37.6 µM (inactive) | 46.8 µM (inactive) | 18.4 µM (inactive) | – | – | 22.4 µM (inactive) | – | – | –
7 | O=C(Nc1nc2ncn(CCI)c2c(=O)[nH]1)c1ccccc1 | > 56.1 µM (inactive) | > 100 µM (inactive) | > 100 µM (inactive) | > 100 µM (inactive) | 23.4 µM (inactive) | > 100 µM (inactive) | > 100 µM (inactive) | > 80.4 µM (inactive) | > 75 µM (inactive) | > 100 µM (inactive) | > 100 µM (inactive) | > 100 µM (inactive) | 41.9 µM (inactive) | > 90.4 µM (inactive) | 52.8 µM (inactive) | > 100 µM (inactive) | > 100 µM (inactive) | – | – | –
8 | Cc1cc2occ(-c3ccc(Cl)cc3)c2c(=O)o1 | > 100 µM (inactive) | 72.8 µM (inactive) | > 100 µM (inactive) | > 100 µM (inactive) | > 100 µM (inactive) | > 100 µM (inactive) | 38.1 µM (inactive) | > 100 µM (inactive) | > 100 µM (inactive) | > 100 µM (inactive) | > 100 µM (inactive) | > 100 µM (inactive) | > 100 µM (inactive) | 58.1 µM (inactive) | > 100 µM (inactive) | > 100 µM (inactive) | – | – | – | –
9 | CCc1cccc(C(C)C)c1NC(=O)CCl | > 100 µM (inactive) | 80.7 µM (inactive) | > 100 µM (inactive) | > 100 µM (inactive) | > 100 µM (inactive) | > 100 µM (inactive) | 71.4 µM (inactive) | > 100 µM (inactive) | 90.2 µM (inactive) | 22.4 µM (inactive) | – | > 100 µM (inactive) | 28.1 µM (inactive) | > 100 µM (inactive) | > 100 µM (inactive) | – | – | – | – | –
10 | Cc1c(-c2coc(-c3ccc(Cl)cc3)n2)c(=O)n(-c2ccccc2)n1C | > 100 µM (inactive) | > 100 µM (inactive) | > 100 µM (inactive) | > 100 µM (inactive) | > 100 µM (inactive) | > 100 µM (inactive) | > 100 µM (inactive) | > 100 µM (inactive) | > 100 µM (inactive) | > 100 µM (inactive) | > 100 µM (inactive) | > 100 µM (inactive) | – | > 100 µM (inactive) | 93.3 µM (inactive) | > 100 µM (inactive) | 9.4 µM (inactive) | – | – | –
11 | C[C@H]1C=C2C(=O)O[C@H]3CC[C@@H](C1)[C@@]23O | 2.82 µM (inactive) | 2.55 µM (inactive) | 2.8 µM (inactive) | 7.03 µM (inactive) | 12.5 µM (inactive) | 4.07 µM (inactive) | 0.233 µM (active) | 2.67 µM (inactive) | 4.97 µM (inactive) | 2.12 µM (inactive) | 3.26 µM (inactive) | 3.97 µM (inactive) | 16.3 µM (inactive) | 18.2 µM (inactive) | 5.38 µM (inactive) | 10.3 µM (inactive) | 13.8 µM (inactive) | – | – | –
12 | N#CC(C(=O)C(=O)Nc1c(Cl)cccc1Cl)c1ccccc1 (stereo unspecified) | > 10 µM (inactive) | 0.356 µM (active) | > 10 µM (inactive) | > 10 µM (inactive) | > 10 µM (inactive) | > 10 µM (inactive) | > 10 µM (inactive) | > 10 µM (inactive) | > 10 µM (inactive) | > 10 µM (inactive) | > 10 µM (inactive) | > 10 µM (inactive) | > 10 µM (inactive) | > 10 µM (inactive) | > 10 µM (inactive) | > 10 µM (inactive) | > 10 µM (inactive) | – | – | –
13 | CCCCc1c2c(nc3c1CCc1cc(C=O)c(N)nc1-3)/C(=C/c1ccccc1)CCC2 | > 100 µM (inactive) | > 100 µM (inactive) | > 100 µM (inactive) | > 100 µM (inactive) | > 100 µM (inactive) | > 100 µM (inactive) | 58.5 µM (inactive) | 48.4 µM (inactive) | > 100 µM (inactive) | 63.1 µM (inactive) | 17 µM (inactive) | > 100 µM (inactive) | > 100 µM (inactive) | > 100 µM (inactive) | > 100 µM (inactive) | > 100 µM (inactive) | 29.9 µM (inactive) | – | – | –
14 | COc1cc2c(c(O)c1C)C(=O)C(Cl)=CC2=O | 12.8 µM (inactive) | 9.53 µM (inactive) | 10.2 µM (inactive) | 4.21 µM (inactive) | 15.1 µM (inactive) | 18.8 µM (inactive) | 0.662 µM (active) | 16 µM (inactive) | 6.4 µM (inactive) | 0.933 µM (active) | 2.16 µM (inactive) | 10.8 µM (inactive) | 42.3 µM (inactive) | 10.4 µM (inactive) | 9.91 µM (inactive) | 11.8 µM (inactive) | 22.3 µM (inactive) | 6.46 µM (inactive) | 22.6 µM (inactive) | 7.46 µM (inactive)
15 | CCN(CCCl)CCCNc1c2ccccc2nc2ccc(OC)cc12 | 0.357 µM (active) | 0.129 µM (active) | 0.12 µM (active) | 0.603 µM (active) | 0.0678 µM (active) | 0.743 µM (active) | 0.0158 µM (active) | 1.02 µM (active) | 0.149 µM (active) | 0.039 µM (active) | 0.0964 µM (active) | 0.0853 µM (active) | 1.05 µM (active) | 1.29 µM (inactive) | 1.1 µM (active) | 0.682 µM (active) | 0.535 µM (active) | – | – | –
